Tests used:
[1] = Dissolution speed: time until 1 g of powder dissolves completely in 100 ml water at ordinary temperature, stirring 550 rpm; format: physicochemical; conditions: Table 4, 25 degrees (ordinary temperature), 1 g in 100 ml water, mean of twice measurement
Description: (§1) As to the dissolution speed, 1 g of powder was dropped into 100 ml of warm water at 50° C. or water at ordinary temperature with stirring at a number of revolutions of 550 rpm (using a 200 ml beaker and a magnetic stirrer), and the time until dissolving completely was measured. A mean value of twice measurement was employed as an indicator of the dissolution speed.

[2] = Dissolution speed: time until 1 g of powder dissolves completely in 100 ml warm water at 50° C., stirring 550 rpm; format: physicochemical
Description: as §1, with “C.” for “C. or water at ordinary temperature”, “The time” for “A mean value of twice measurement”
as §1

[3] = at 20° C.; water; cited from earlier work
[4] = Mean particle size D50 by digital image analysis type particle size distribution meter; format: physicochemical
Description: The size of the solid solution of the invention is preferably 50-1000 μm as a mean particle size. The mean particle size as used herein refers to the number median particle size of sieve diameter D50. In view of dissolution speed taking melting ability in the mouth of solid foods and usability as solid beverages into consideration, too large crystals are unsuitable for practical use. Too small crystals are also unsuitable, due to being choked by dusting upon eating and dusting loss upon manufacturing. As to the mean particle size, D50 was measured by a digital image analysis type particle size distribution meter (Ana Tec As Norway). […]

[5] = Table 1, 1 g in 100 ml warm water at 50° C., time until dissolving completely
[6] = Table 5, 50 degrees, 1 g in 100 ml warm water, mean of twice measurement

Row | Compound | Dissolution Speed [1] | Dissolution Speed [2, 5] | Dissolution Speed [2, 6] | solubility [3] | Mean Particle Size ([4]; Table 1) | Mean Particle Size ([4]; Table 4) | Mean Particle Size ([4]; Table 5)
1 | CC(C)C[C@H](N)C(=O)O [Leu, L-leucine] | 320 s | 130 s | 130 s | 2.38 g | 280 μm | 280 μm | 280 μm
2 | CC(C)[C@H](N)C(=O)O [Val, L-valine] | 142 s | 118 s | 117.5 s | 5.75 g | 210 μm | 210 μm | 210 μm
3 | CC[C@H](C)[C@H](N)C(=O)O [Ile, L-isoleucine] | 287 s | 129 s | 128.5 s | 4.02 g | 400 μm | 400 μm | 400 μm

— patent US20110257236A1, “SOLID SOLUTION OF VALINE, ISOLEUCINE, LEUCINE AND ITS MANUFACTURING METHOD” (AJINOMOTO CO., INC., priority 2008, published 2011)
